Experimental data: PubChem BioAssay AID651717 (Broad Institute, 2012)

test system: mESC Bmi1-luciferase reporter, firefly/renilla ratio, 24 h; experiment: Bmi1-luciferase reporter activators in mESC, dose response, esBAF inhibitor project, mouse embryonic stem cells, cherry-pick (AID 651717);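 note: luciferase knocked into Bmi1 locus with EF-1a renilla as cell number control; rising ratio signals esBAF inhibition which derepresses Bmi1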

Row | SMILES | AC40 [µM]
1 | CN(C)c1ccc(CN(C(=O)c2cc3ccccc3oc2=O)C2CCS(=O)(=O)C2)cc1 (stereo unspecified) | 3.62
2 | COc1ccc2c(c1OC)C(=O)N1c3ccccc3SC21 (stereo unspecified) | 0.438
3 | Cc1cc(C)c(N=Cc2c(O)c3ccccc3oc2=O)c(C)c1 | 7.95
4 | COc1ccc(NC(=O)c2cc(C3CC3)on2)c(OC)c1 | 11.8
5 | Oc1ccc(-c2nccc(-c3ccccn3)n2)cc1 | 3.66
6 | N#Cc1nc(COc2ccccc2)oc1N1CCCCC1 | 15.6
7 | CO[C@@H]1CN(C)C(=O)c2ccc(NC(=O)Nc3ccc4c(c3)OCO4)cc2OC[C@@H](C)NC[C@@H]1C | 2.93
8 | COc1ccc(OCc2cc(C(=O)NC(C)Cc3cnccn3)no2)c(Cl)c1 (stereo unspecified) | 5.42
9 | Cc1ccc2c(CN(C)Cc3ccccc3)cc(=O)oc2c1 | 1.82
10 | C=CCNc1nc2cc(-c3ccccc3OC)sc2c(=O)n1C | 5.18
11 | Cc1ccc2c3c([nH]c2c1C)-c1nonc1CC3 | 4.53
12 | CCn1c(SCc2ccccc2Cl)nc2ccccc21 | 5.49
13 | COc1ccc(NC(=O)c2csc3c2CCCC3)cc1 | 0.459
14 | CC(C)C1CCN(C(=O)C2CCC(=O)N(C3CCCCCC3)C2)CC1 (stereo unspecified) | 9.83
15 | O=C(OCc1ccccc1)N1CCC2CC1c1cc(/C=C/CCCSc3ncccn3)ccc12 (stereo unspecified) | 12.2
16 | CS(=O)(=O)c1cccc(-c2csc(N3CCC(C(N)=O)CC3)n2)c1 | < 0.26
17 | N/C(=N\OC(=O)Cc1cccs1)c1ccc(Cl)cc1 | 18.1
18 | Clc1ccc(-c2nc3ccc(Cl)cn3c2Cc2ccsc2)cc1 | 9.87
19 | Cc1c(C(=O)NCc2cccnc2)sc2nc(-c3ccccc3)cn12 | 30.8
20 | Cc1cc(F)ccc1-c1cc(C(=O)NC2CCCCC2)[nH]n1 | 9.06
21 | Cc1csc(NC(=O)Nc2ccc(Cl)cc2)n1 | 2.68
22 | CCn1c(COc2ccccc2C)nc2ccccc21 | 3.51
23 | Cc1csc(N/N=C/c2ccccc2F)n1 | 1.01
24 | O=C(Nc1cccc(Cl)c1Cl)c1ccc(-c2ccccc2)cc1 | 3.54
25 | COc1c(C(=O)NNC(=O)c2ccccc2)csc1Br | 0.646
26 | C/C(CC(=O)Nc1ccc(OCc2ccccc2)cc1)=N\NC(=O)C(=O)Nc1ccc(C)c(Cl)c1 | 1.03

Row | SMILES | AC40 [µM]
27 | Cc1ccc(C(=O)CN2C(=O)NC3(CCCCCC3)C2=O)c(C)c1 | 1.63
28 | c1csc(Cc2nc3ccccc3[nH]2)c1 | 16.2
29 | COc1cccc(NC(=O)c2ccccc2Br)c1 | 4.25
30 | O=C1CCCc2c1sc1nc3n(c(=O)c21)CCCCC3 | 4.12
31 | COc1cccc(NC(=O)C(=O)NCC2CCCN2S(=O)(=O)c2cccs2)c1 (stereo unspecified) | 1.25
32 | COc1ccc(Cl)c(-c2cc(C(=O)Nc3ccc(F)cc3)[nH]n2)c1 | 2.11
33 | Nc1cc2c(cc1Cl)-c1ccccc1C2 | 6.53
34 | COc1ccc(S(=O)(=O)Nc2cc(C(=O)NC3CCCCCC3)ccc2N2CCOCC2)cc1 | 7.61
35 | COc1ccc2nc3sc(C(=O)NCCCN4CCc5ccccc5C4)cc3cc2c1 | 11.9
36 | COc1ccc2[nH]c(=O)c(CNc3cccc(C)c3)cc2c1 | 12.9
37 | O=C(Cn1cc(C(F)(F)F)cc(Cl)c1=O)NCc1ccc(F)cc1 | 7.38
38 | Cc1ccc(NC(=O)c2cccc3ccccc23)cc1 | 13.9
39 | Cc1ccccc1NC(=O)c1ccc2c(c1)N(C)CCS2 | 3.39
40 | Cn1cccc1C(=O)OCc1ccc(C(C)(C)C)cc1 | 4.64
41 | Cc1ccc(NC(=O)O/N=C/c2ccc(N(C)C)cc2)cc1 | 16.6
42 | C(=NOCc1ccccc1)c1cccnc1 | 4.28
43 | Cc1ccc(Nc2cccccc2=O)cc1 | 3.88
44 | c1ccc(CCNc2nc3ccccc3s2)cc1 | 3.14
45 | O=C(NC1CCCCCCC1)c1cccc(Cl)c1 | 10.7
46 | Cc1sc(NC(=O)C2CCCCC2C(=O)O)c(C(N)=O)c1-c1ccc(C(C)C)cc1 (stereo unspecified) | 6.81
47 | Cc1ccccc1-c1nnc(-c2cccc3ccccc23)o1 | 0.85
48 | Cc1ccc(SCCN2CCC(C)CCC2=O)cc1 (stereo unspecified) | 2.74
49 | O=C(O)c1ccc(N/N=C/c2cccc3nccnc23)cc1 | 4.04
50 | O=c1ccc2ccc(OCc3ccccc3)cc2o1 | 3.55
51 | COc1ccc(-c2cnc(C(O)c3ccccc3)[nH]2)cc1 (stereo unspecified) | 1.15
